Marks after values point to notes of the source that are not given here.
Tests used:
[1] = tested on: mullein bug, Campylomma verbasci; conditions: blend released at rates of 91 and 183 μL per day; Smith et al. 1991, McBrien et al. 1994; cited from earlier work
Phytocoris relativus = conditions: Millar & Rice 1998; cited from earlier work
Phytocoris californicus = conditions: Millar & Rice 1998; Millar et al. 1997; cited from earlier work
[2] = tested on: green mirid, Creontiades dilutus; experiment: Field trapping bioassays: rubber septa lures in delta traps; format: in vivo; conditions: Experiment 1, soybeans, Cecil Plains; for Mean trap catch: 2 mg lure, mean ± s.e.
Protocol: A series of trials involving blends of the major component, hexyl hexanoate and the minor component (E)-2 hexenyl hexanoate in various ratios, as coded and presented in Table 1, as well as the single components, were tested in a series of field trapping experiments. After the initial optimisation, two other components (methyl salicylate and (Z)-3 hexenyl acetate), found in both the male and female extracts, were tested by adding them to the optimised blend.
Lures were prepared using rubber septa. Each lure was loaded with 2 mg of the blend with 10% butylated hydroxytoluene (BHT) added as an anti-oxidant. Control lures were loaded with BHT only.
Field experiments were conducted at Cecil Plains (Qld), Narrabri, Tamworth, Mullaley and Armidale (NSW). The experimental designs were Latin Squares with treatment (pheromone blend), trap position and day as the factors. Traps were placed in a grid at intervals of 25-50 m, cleared daily, and rotated to different positions in the Latin Square designs. Delta traps made out of plastic (Corflute®) were used.
This experiment aimed to test blends against individual components of the female sex pheromone. A 4×4 Latin square design with 4 rotation periods, 4 blend locations and 4 treatments was set up in soybeans in Cecil Plains. Traps were located 100 m from each other and cleared every day before rotation. […] They were only caught in traps baited with the blend GM1 at an average of 3.9 males per trap. All insects caught were sexed morphologically and found to be males. […]
A 3×3 Latin Square experiment, replicated at two different sites in mung beans and one site in a slashed lucerne field was set up in Mullaley, NSW. This experiment involved blends GM2, GM12, GM13. In the mung beans at Site 1, blend type was the only significant factor (P<0.01).
Blends GM2, GM12, GM17 and GM19 were tested in a 4×4 Latin Square experiment in lucerne at Piallamore, NSW. […] Analysis of variance on the logarithmically transformed data indicated no significant differences (P>0.05) between the blends.
This experiment aimed at testing the effect of septa loading on trap catches. It involved the use of blend GM2 with a 2, 20 and 40 mg loading respectively. The ratio of hexyl hexanoate to (E)-2-hexenyl acetate in all blends was 5:1. The design was a 3×3 Latin Square set up at two different sites in mung beans at Mullaley, NSW. […] Trap location and day were also non significant (Table 11).
This experiment aimed at testing the effects of methyl salicylate and (Z)-3 hexenyl acetate, identified in both male and female extracts on the optimised blend. The hypothesis was that they might increase the attractiveness of the blend. Blends GM2, GM14, GM15 and GM16 were used in a 4×4 Latin Square experiment conducted in lucerne at Piallamore, NSW. […]

[3] = tested on: green mirid, Creontiades dilutus; experiment: Attract-and-kill Experiment 1: sprayed-on formulation with added insecticide (methomyl); format: in vivo; conditions: pigeon peas, Mullaley, about 2.3% volatiles in carrier, methomyl 0.5%, 5 m of row
Description: The trial was set up in late flowering pigeon peas near Mullaley, NSW. The pheromone components were mixed with the formulation base from Magnet®, the commercial embodiment of the compositions described in WO 02/089577, the contents of which are incorporated herein by reference.
The plant volatile components of Magnet® were not included. The toxicant was methomyl at a concentration of 0.5% active ingredient.
There were four treatments: • 1) Control (no pheromone components added; carrier only) • 2) 12 ml hexyl hexanoate added to 500 ml of carrier • 3) 12 ml (E)-2 hexenyl hexanoate added to 500 ml of carrier • 4) 10 ml hexyl hexanoate plus 2 ml (E)-2 hexenyl hexanoate added to 500 ml carrier
Thus, in treatments 2-4 the final concentration of volatile pheromone components was about 2.3%. Treatment 4 had the two components in the optimum ratio as determined by trapping experiments.
Approximately 100 ml of each mixture was applied to 5 m of row of the pigeon peas, being shaken from a plastic bottle onto the tops of the plants. There were three replicates of each treatment, with buffer zones of 20 m surrounding them. Black plastic weed mat, 90 cm wide, was placed in the furrows on both sides,of the treated rows. It was secured around the bases of the plants using clothes pegs. This was done to facilitate finding dead GM. The treated areas were searched each morning over the next three days, and any dead GM found were sexed. Two pheromone traps, using blend GM2 as previously described, were also operated near the experimental site. At the conclusion of the experiment, five replicate samples using beat sheets were taken in the vicinity of the sprayed regions.

[4] = Day 1, standard error in brackets

Row | Compound | Attractiveness of lures in field studies [1] | GM caught in baited traps, average [2] | Mean trap catch [2] | Mean number of female adults found (killed) [3, 4] | Mean number of male adults found (killed) [3, 4] | Mean number of nymphs found (killed) [3, 4] | Mean number of female adults found (killed) ([3]; Day 2) | Mean number of male adults found (killed) ([3]; Day 2) | Mean number of nymphs found (killed) ([3]; Day 2) | other results
1 | C/C=C/COC(=O)CCC [(E)-2-butenyl butyrate] | inactive | – | – | – | – | – | – | – | – | –
2 | CCCCC/C=C/COC(C)=O [(E)-2-octenyl acetate] | – | – | – | – | – | – | – | – | – | Inhibition of P. relativus males (Phytocoris relativus): did not inhibit
3 | CCCCC/C=C/COC(=O)CCC [(E)-2-octenyl butyrate] | – | – | – | – | – | – | – | – | – | Inhibition of attraction of P. californicus males to traps (Phytocoris californicus): inhibited attraction
4 | CCCCCCOC(=O)CCCCC [GM5, hexyl hexanoate] | – | did not attract any GM | 0.0 ± 0^b | 1.3 (0.3) | 1.3 (0.3) | 0.3 | 0 | 0 | 0 | –
5 | CCC/C=C/COC(=O)CCCCC [GM6, (E)-2-hexenyl hexanoate] | – | did not attract any GM | 0.0 ± 0^b | 1.0 (1.0) | 3.0 (1.1) | 0.3 (0.3) | 0 | 1.3 | 0 | –
6 | CCCCOC(=O)CCC [butyl butyrate] | inactive | – | – | – | – | – | – | – | – | –
